The values below come from ChEMBL document CHEMBL4311972, “Discovery of a benzothiophene-flavonol halting miltefosine and antimonial drug resistance in Leishmania parasites through the application of medicinal chemistry, screening and genomics” (Eur J Med Chem, 2019).

Several values for one entry are separate records, joined by “and”; a condition that tells them apart may be missing. Equal values may be shown once. Activity calls are given as the source filed them. The calls are words filed in the database; no cut-off is given here. Bounds are passed on as bounds.

Series [1] has as its system Leishmania infantum. Nature of the series: Antileishmanial activity against Leishmania infantum amastigotes infected in Syrian hamster assessed as reduction in parasite load at 40 mg/kg/day, po for 10 days formulated with 30% v/v cyclodextrin relative to control. The series is classed as functional. The note with it: 240 h.
The nature of series [2]: AUC (total) in BALB/c mouse at 20 mg/kg, po measured upto 72 hrs by snapshot method. The series is classed as ADME, organism-based. Set-up: time < 72 hr, dose 20 mg/kg, route oral. The following applies: in vivo.
Series [3] deals with Leishmania infantum. Nature of the series: Antileishmanial activity against Leishmania infantum amastigotes infected in Syrian hamster assessed as parasite load within liver at 40 mg/kg/day, po for 10 days formulated with 30% v/v cyclodextrin (reference value: 4333333.333 +/- 3444802.849 /g). The series is classed as functional.
The target in series [4] is T1, Albumin (Bos taurus, UniProt P02769). The experiment in a line: Binding affinity to bovine serum albumin in phosphate buffer assessed as compound lifetime at 530 nm at 5 uM measured at pH 8 by fluorescence emission spectrum analysis. The series is classed as ADME. The following applies: cattle, isolated protein.
T1 sequence (P02769 whole entry): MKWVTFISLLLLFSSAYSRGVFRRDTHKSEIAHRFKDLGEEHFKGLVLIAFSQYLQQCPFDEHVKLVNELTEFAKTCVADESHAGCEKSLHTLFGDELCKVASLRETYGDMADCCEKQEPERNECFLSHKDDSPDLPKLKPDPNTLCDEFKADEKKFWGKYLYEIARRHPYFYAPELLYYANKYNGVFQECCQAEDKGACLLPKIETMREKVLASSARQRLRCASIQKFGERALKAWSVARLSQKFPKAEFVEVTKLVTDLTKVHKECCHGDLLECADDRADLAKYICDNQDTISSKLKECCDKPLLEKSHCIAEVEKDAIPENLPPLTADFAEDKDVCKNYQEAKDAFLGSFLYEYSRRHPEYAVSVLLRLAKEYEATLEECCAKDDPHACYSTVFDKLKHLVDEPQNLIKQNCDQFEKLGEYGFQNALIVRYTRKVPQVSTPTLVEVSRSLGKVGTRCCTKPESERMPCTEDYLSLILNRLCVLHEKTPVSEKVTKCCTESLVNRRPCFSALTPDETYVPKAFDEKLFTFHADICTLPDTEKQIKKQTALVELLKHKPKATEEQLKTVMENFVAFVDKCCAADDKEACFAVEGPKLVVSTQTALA
Series [5] is described as follows: Toxicity in Syrian hamster infected with Leishmania infantum BCN150 promastigotes assessed as effect on AST level at 40 mg/kg/day, po for 10 days formulated with 30 to 50% v/v cyclodextrin measured after the last treatment. The series is classed as organism-based, Mesocricetus auratus. The following applies: in vivo, 240 h.
The nature of series [6]: Tmax in BALB/c mouse at 1 mg/kg, iv measured upto 72 hrs by snapshot method. The series is classed as ADME, organism-based. The note with it: in vivo.
In series [7] the test system is Leishmania infantum. Nature of the series: Antileishmanial activity against Leishmania infantum amastigotes infected in Syrian hamster assessed as parasite load within spleen at 40 mg/kg/day, po for 10 days formulated with 8% v/v DMSO (reference value: 9151063.431 +/- 2606154.975/g). The series is classed as functional.
A short description of series [8]: Chemical stability of compound in PBS assessed as decrease in absorbance at 60 uM at pH 7 to 8 measured after exposure to daylight by UV-vis spectrophotometry analysis. The series is classed as physicochemical. The note with it: buffer, pH 7, 60 µM.
Series [9] concerns the target T1, Albumin. The experiment in a line: Binding affinity to bovine serum albumin in phosphate buffer assessed as increase in emission intensity at 530-550 nm at 5 uM measured at pH 8 at albumin concentration of 12 uM by fluorescence emission spectrum analysis. The format is ADME. The note with it: cattle, isolated protein, pH 8, 5 µM.
Series [10] concerns Leishmania donovani. Nature of the series: Antileishmanial activity against antimony resistant Leishmania donovani BPK190 promastigotes infected in C57BL/6 mouse bone marrow-derived macrophages assessed as reduction in parasite load at 10 uM treated with compound at 24 hrs post-infection measured after 72 hrs post infection by q-PCR analysis relative to control. The series is classed as functional.

Series [11] is described as follows: Selectivity index, ratio of CC50 for human THP1 cells to EC50 for luciferase expressing intracellular amastigote stage of Leishmania infantum infected in human THP1 cells. The series is classed as toxicity, cell-based. The following applies: read-out: Ratio CC50/EC50.
Series [12] deals with T2, Albumin (Homo sapiens, UniProt P02768). Nature of the series: Binding affinity to human serum albumin in phosphate buffer assessed as increase in emission anisotropy at 530 nm at 5 uM measured at pH 8 by fluorescence emission spectrum analysis. The format is ADME. The note with it: isolated protein.
T2 sequence (P02768 whole entry): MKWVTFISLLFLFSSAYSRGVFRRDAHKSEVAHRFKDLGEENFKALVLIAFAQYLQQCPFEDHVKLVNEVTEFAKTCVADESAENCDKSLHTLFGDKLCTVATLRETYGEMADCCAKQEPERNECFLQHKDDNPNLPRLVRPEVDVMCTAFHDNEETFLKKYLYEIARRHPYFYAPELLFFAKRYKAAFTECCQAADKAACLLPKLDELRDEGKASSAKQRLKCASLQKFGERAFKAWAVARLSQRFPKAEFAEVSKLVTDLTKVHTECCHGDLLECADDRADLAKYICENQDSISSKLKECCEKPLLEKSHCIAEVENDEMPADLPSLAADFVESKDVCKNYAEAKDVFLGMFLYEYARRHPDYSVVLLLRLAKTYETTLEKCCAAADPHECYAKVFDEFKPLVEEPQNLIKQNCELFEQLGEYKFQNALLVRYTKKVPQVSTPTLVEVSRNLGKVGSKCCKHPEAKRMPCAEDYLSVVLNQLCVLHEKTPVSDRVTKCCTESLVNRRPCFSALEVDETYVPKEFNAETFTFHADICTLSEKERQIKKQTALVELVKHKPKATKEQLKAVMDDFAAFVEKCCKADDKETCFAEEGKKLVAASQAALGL
Series [13] is described as follows: Plasma concentration in syrian hamster infected with Leishmania infantum BCN150 promastigote at 40 mg/kg/day, po for 10 days formulated with 8% v/v DMSO. The format is ADME, organism-based, Mesocricetus auratus.
The test system of series [14] is Leishmania donovani. The experiment in a line: Antileishmanial activity against antimony resistant Leishmania donovani BPK190 promastigotes infected in C57BL/6 mouse bone marrow-derived macrophages assessed as reduction in parasite load at 5 uM treated with compound at 24 hrs post-infection measured after 72 hrs post infection by q-PCR analysis relative to control. The format is functional.

Series [15] is described as follows: Chemical stability of compound in PBS assessed as decrease in absorbance at 20 uM at pH 8 measured after air bubbling by UV-vis spectrophotometry analysis. The following applies: buffer, pH 8, 20 µM. The format is physicochemical.
The nature of series [16]: Plasma concentration in syrian hamster infected with Leishmania infantum BCN150 promastigote at 40 mg/kg/day, po for 10 days formulated with 30% v/v cyclodextrin. The series is classed as ADME, organism-based, Mesocricetus auratus.
A short description of series [17]: Toxicity in Syrian hamster infected with Leishmania infantum BCN150 promastigotes assessed as effect on plasma creatinine level at 40 mg/kg/day, po for 10 days formulated with 30 to 50% v/v cyclodextrin measured after the last treatment. The following applies: in vivo, 240 h. The series is classed as organism-based, Mesocricetus auratus.
Series [18] is described as follows: Toxicity in Syrian hamster infected with Leishmania infantum BCN150 promastigotes assessed as liver lesions at 40 mg/kg/day, po for 10 days formulated with 8% v/v DMSO measured under necropsy. The series is classed as organism-based, Mesocricetus auratus. The note with it: in vivo, 240 h.
Series [19] has as its target T2, Albumin. Nature of the series: Binding affinity to human serum albumin in phosphate buffer assessed as increase in emission intensity at 530-550 nm at 5 uM measured at pH 8 at albumin concentration of 2 uM by fluorescence emission spectrum analysis. The series is classed as ADME. The following applies: isolated protein, pH 8, 5 µM.
In series [20] the target is T1, Albumin. The experiment in a line: Binding affinity to bovine serum albumin in phosphate buffer assessed as decrease in emission intensity at 450 nm at 5 uM measured at pH 8 by fluorescence emission spectrum analysis. The series is classed as ADME. The note with it: cattle, isolated protein.
Series [21] in a line: Binding affinity to pepsin in porcine gastric mucosa in phosphate buffer assessed as increase in emission intensity at 530 nm at 5 uM measured at pH 8 by fluorescence emission spectrum analysis. The series is classed as ADME, Sus scrofa. The note with it: pig.
Series [22] deals with T2, Albumin. Nature of the series: Binding affinity to human serum albumin in phosphate buffer assessed as decrease in emission intensity at 450 nm at 5 uM measured at pH 8 at albumin concentration of 0.6 +/-0.1 uM by fluorescence emission spectrum analysis. The series is classed as ADME. Set-up: scale not given: the % may be the effect or the level left. The note with it: isolated protein.

For series [23], the system named is Leishmania infantum. Nature of the series: Antileishmanial activity against Leishmania infantum amastigotes infected in Syrian hamster assessed as reduction in parasite load at 40 mg/kg/day, po for 10 days formulated with 50% v/v cyclodextrin relative to control. The format is functional. The note with it: 240 h.
The nature of series [24]: Chemical stability of compound in PBS assessed as decrease in absorbance at 60 uM at pH 7 to 8 and 25 degC measured within 20 mins under dark conditions by UV-vis spectrophotometry analysis. The series is classed as physicochemical. The note with it: read-out: Drug degradation.
The nature of series [25]: Tmax in BALB/c mouse at 20 mg/kg, po measured upto 72 hrs by snapshot method. The format is ADME, organism-based. The note with it: in vivo.
Series [26] can be described thus: Plasma concentration in syrian hamster infected with Leishmania infantum BCN150 promastigote at 20 mg/kg/day, po for 10 days. The series is classed as ADME, organism-based, Mesocricetus auratus.
For series [27], the system named is Leishmania infantum. Nature of the series: Antileishmanial activity against Leishmania infantum amastigotes infected in Syrian hamster assessed as parasite load within liver at 20 mg/kg/day, po for 10 days (reference value: 5333333.333 +/- 3011090.611/g). The format is functional.
In series [28] the test system is Leishmania donovani. Nature of the series: Antileishmanial activity against Leishmania donovani 1SR promastigotes assessed as parasite growth at IC50 concentration incubated with compound for 3 days under selective pressure and selection cycle repeated 10 times for total of 33 days and measured at 3 to 33 days of selection. The series is classed as functional, organism-based.

A short description of series [29]: Toxicity in Syrian hamster infected with Leishmania infantum BCN150 promastigotes assessed as nausea at 20 mg/kg/day, po for 10 days measured daily. The format is organism-based, Mesocricetus auratus. The following applies: in vivo, 240 h.
Series [30] concerns Leishmania donovani. The experiment in a line: Antileishmanial activity against Leishmania donovani BPK091 promastigotes transfected with Leishmania donovani BPK190 genomic cosmid DNA assessed as parasite growth at IC75 concentration incubated for 3 days under selective pressure and selection cycle repeated for 25 passages and measured at 43 to 78 days of selection relative to control. The format is functional.

Series [31] is described as follows: Toxicity in Syrian hamster infected with Leishmania infantum BCN150 promastigotes assessed as distress effect at 20 mg/kg/day, po for 10 days measured daily. The series is classed as organism-based, Mesocricetus auratus. The note with it: in vivo, 240 h.

As to `COc1ccc2oc(-c3csc4ccccc34)c(O)c(=O)c2c1`, the inhibition in vivo (usually the drop in the measured response relative to a control, in per cent) at 40 mg/kg/day in the series with Leishmania infantum [1] is 28.8%; in the series with Leishmania infantum [23], 35.8%. Moreover, the AUC (commonly concentration integrated over time) at 72 h in [2] was 38.5 µM·h and 12500 ng·h/mL. Further, the Activity in the series with Leishmania infantum [3] is 3428571.429 g⁻¹; in series [5] it was “Non-Toxic”; with Leishmania infantum [7] it was 6785423.957 g⁻¹; on Albumin [9] it was 50%; on Albumin [12], “Active”; in [17] it was “Non-Toxic”. Further, the Activity entry in series [18] is listed as “Non-Toxic”; at Albumin [19], 50%; on Albumin [20] it was “Active”; in series [21], “Active”; on Albumin [22], 50%. Also, the Time at Albumin [4] was determined as 5.5 nanoseconds. Further, the Tmax (commonly the time at which the peak concentration occurs) worked out at 4.8 min in [6] and 60 min in series [25]. The Stability entry in [8] and in series [15] was “Unstable” throughout. Also, in the series on Leishmania donovani [10], the inhibition (in general, the share of the control response that was lost under treatment) at 10 µM amounted to 69%. In addition, in [11], the selectivity ratio was 17. The concentration at 240 h in series [13] worked out at 44 nM; in series [16], 76 nM. The inhibition at 5 µM with Leishmania donovani [14] is 78%. Besides, in series [24], the degraded at 20 min, 60 µM is 50%.
As for `CCCCCCCCCCCCCCCCOP(=O)([O-])OCC[N+](C)(C)C` [MILTEFOSINE], the concentration at 240 h in [26] amounted to 59300 nM. For the same molecule, the Activity was 1000000 g⁻¹ with Leishmania infantum [27], “Toxic” in series [29], greater than 75% in the series on Leishmania donovani [30] and “Toxic” in series [31]. Further, the inhibition result in the series on Leishmania donovani [28] is “inactive”.
